Test results published in ChEMBL document CHEMBL1201862, “PubChem BioAssay data set” (2004).
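Cells were grown in 96-well plates and exposed to each compound for 48 hours at five concentrations; endpoints were interpolated linearly between bracketing concentrations, or set to the highest concentration if not reached. The concentration for 50% growth inhibition is given as GI50.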 Activity calls are given as the source filed them. No stated cut-off is given here; in the data, active = GI50 up to about 1.1 µM and inactive = higher.

Legend:
Assay in all cases: NCI tumour cell line growth inhibition, 48 h
OVCAR-5 = tested on: OVCAR-5
SF-539 = tested on: SF-539
LXFL 529 = tested on: LXFL 529
COLO 205 = tested on: COLO 205
LOX IMVI = tested on: LOX IMVI
MOLT-4 = tested on: MOLT-4
NCI-H23 = tested on: NCI-H23
A498 = tested on: A498
UACC-62 = tested on: UACC-62
M14 = tested on: M14
A549 = tested on: A549
HCC 2998 = tested on: HCC 2998
HT-29 = tested on: HT-29
RXF 631 = tested on: RXF 631
HOP-62 = tested on: HOP-62
SF-268 = tested on: SF-268
SK-MEL-28 = tested on: SK-MEL-28
HCT-15 = tested on: HCT-15
NCI-H522 = tested on: NCI-H522
OVCAR-3 = tested on: OVCAR-3
K562 = tested on: K562
HOP-18 = tested on: HOP-18
XF498 = tested on: XF498
IGROV-1 = tested on: IGROV-1
ACHN = tested on: ACHN
CCRF-CEM = tested on: CCRF-CEM
SN12C = tested on: SN12C
SK-OV-3 = tested on: SK-OV-3
EKVX = tested on: EKVX
SF-295 = tested on: SF-295
SR = tested on: SR
DLD-1 = tested on: DLD-1
HL-60 = tested on: HL-60
KM-20L2 = tested on: KM-20L2
SK-MEL-5 = tested on: SK-MEL-5
DMS-114 = tested on: DMS-114
786-0 = tested on: 786-0
KM12 = tested on: KM12
DMS-273 = tested on: DMS-273
RPMI-8226 = tested on: RPMI-8226
SNB-78 = tested on: SNB-78
SNB-19 = tested on: SNB-19
TK-10 = tested on: TK-10
UACC-257 = tested on: UACC-257
RXF 393 = tested on: RXF 393
OVCAR-8 = tested on: OVCAR-8
SNB-75 = tested on: SNB-75
NCI-H226 = tested on: NCI-H226
UO-31 = tested on: UO-31
NCI-H460 = tested on: NCI-H460
HCT-116 = tested on: HCT-116
U-251 = tested on: U-251
CAKI-1 = tested on: CAKI-1
HOP-92 = tested on: HOP-92
M19-MEL = tested on: M19-MEL
Malme-3M = tested on: Malme-3M
OVCAR-4 = tested on: OVCAR-4
SK-MEL-2 = tested on: SK-MEL-2

Measured: GI50

COCCN1C2=CCCCC2=Nc2c1nc(N)[nH]c2=O
> 100 µM: HCT-15
inactive: OVCAR-5 > 100 µM | SF-539 > 100 µM | LXFL 529 > 100 µM | COLO 205 > 100 µM | LOX IMVI > 100 µM | MOLT-4 > 100 µM | NCI-H23 > 100 µM | A498 > 100 µM | UACC-62 > 100 µM | M14 > 100 µM | A549 > 100 µM | HCC 2998 > 100 µM | HT-29 > 100 µM | RXF 631 > 100 µM | HOP-62 > 100 µM | SF-268 > 100 µM | SK-MEL-28 > 100 µM | NCI-H522 > 100 µM | OVCAR-3 > 100 µM | K562 > 100 µM | HOP-18 > 100 µM | XF498 > 100 µM | IGROV-1 > 100 µM | ACHN > 100 µM | CCRF-CEM > 100 µM | SN12C > 100 µM | SK-OV-3 > 100 µM | EKVX > 100 µM | SF-295 > 100 µM | SR > 100 µM | DLD-1 > 100 µM | HL-60 > 100 µM | KM-20L2 > 100 µM | SK-MEL-5 > 100 µM | DMS-114 > 100 µM | 786-0 > 100 µM | KM12 > 100 µM | DMS-273 > 100 µM | RPMI-8226 > 100 µM | SNB-78 > 100 µM | SNB-19 > 100 µM | TK-10 > 100 µM | UACC-257 > 100 µM | RXF 393 > 100 µM | OVCAR-8 > 100 µM | SNB-75 > 100 µM | NCI-H226 > 100 µM | UO-31 > 100 µM | NCI-H460 > 100 µM | HCT-116 > 100 µM | U-251 > 100 µM | CAKI-1 > 100 µM | HOP-92 > 100 µM | M19-MEL > 100 µM | Malme-3M > 100 µM

CCOC(=O)C1=C(OC(OCC)C(CC)[Se]c2ccccc2)CCC1 (centres undefined)
inactive: OVCAR-5 23.1 µM | SF-539 19.8 µM | LXFL 529 18.7 µM | COLO 205 34.3 µM | LOX IMVI 7.31 µM | MOLT-4 20.1 µM | NCI-H23 12.5 µM | A498 41.2 µM | UACC-62 17.8 µM | M14 15.1 µM | A549 77.4 µM | HCC 2998 15.2 µM | HT-29 25.1 µM | RXF 631 10.3 µM | HOP-62 78.5 µM | SF-268 18.7 µM | SK-MEL-28 32.3 µM | NCI-H522 15.6 µM | OVCAR-3 23.7 µM | OVCAR-4 13.2 µM | K562 44 µM | HOP-18 23.1 µM | XF498 23.1 µM | IGROV-1 25.6 µM | ACHN 32.2 µM | CCRF-CEM 11 µM | SN12C 17.1 µM | SK-OV-3 92 µM | EKVX 29.2 µM | SF-295 16.9 µM | SR 19.3 µM | DLD-1 19.3 µM | HL-60 12.4 µM | KM-20L2 29.8 µM | SK-MEL-5 12.6 µM | DMS-114 4.62 µM | 786-0 15.5 µM | KM12 39.4 µM | DMS-273 13.2 µM | RPMI-8226 19.3 µM | SK-MEL-2 31.5 µM | SNB-78 24.5 µM | SNB-19 42.2 µM | TK-10 82 µM | UACC-257 28 µM | RXF 393 19.5 µM | OVCAR-8 33.2 µM | SNB-75 25.3 µM | NCI-H226 18.3 µM | UO-31 28.9 µM | NCI-H460 39.7 µM | HCT-116 20.4 µM | U-251 11.4 µM | CAKI-1 44.2 µM | HOP-92 19.3 µM | M19-MEL 14.4 µM | Malme-3M 4.58 µM
14.7 µM: HCT-15
